32 molecules from publication PMC11204085, “Molecular Characterization of Chemosensory Protein (CSP) Genes and the Involvement of AgifCSP5 in the Perception of Host Location in the Aphid Parasitoid Aphidius gifuensis” (International Journal of Molecular Sciences, 2024) can be followed below.

“Also recorded” adds a separate entry of the source. Read-outs that look alike come from different tables or passages of the source. Where only a bound is given, the exact number is not on record here.

Assay [1] concerns the target AgifCSP5 (Aphidius gifuensis, UniProt A0A3Q9ELG9). The assay can be described thus: Fluorescence competitive binding assay with 1-NPN probe, wild-type AgifCSP5. The note with it: for Binding affinity in words: wild-type AgifCSP5. The source says:
(§1) The candidate VOCs were mainly derived from various organic volatiles in wheat field habitats, referring to the compounds related to wheat plants and wheat aphids previously reported in a published paper by Jiang et al. in 2022 and 2023 [11, 12], including four groups of ligands: (1) aphid alarm pheromone components; (2) aphid sex pheromone; (3) green leaf volatiles of wheat; and (4) aphid-induced plant volatiles. […] The classes, CAS numbers, and purities of the chemicals used in these assays are listed in Appendix B. A Lengguang 970CRT spectrofluorimeter (Shanghai Jingmi, Shanghai, China) equipped with a 1 cm light path fluorimeter quartz cuvette was used to record the fluorescence intensity at room temperature with the following parameters: the excitation wavelength was set at 337 nm, the emission light wavelength was recorded at 350–500 nm, the high-speed scan mode was used, and the slit width was 10 nm. To determine the binding affinity of 1-NPN for AgifCSP5 proteins, a 2 µM protein solution diluted with 50 mM Tris-HCl at pH 7.4 was titrated with aliquots of the 1 mM 1-NPN stock solution to final concentrations ranging from 2–40 μM. Ligands bound to AgifCSP5 have a protein:ligand ratio of 1:1. Three independent repeats were carried out for all measurements. The binding affinity of AgifCSP5 for all ligands was calculated by the formula Ki = [IC50]/(1 + [1 − NPN]/K1-NPN), where the IC50 is defined as the concentration of a competitor that caused a 50% reduction in fluorescence intensity, K1-NPN is the dissociation constant (Kd) of the AgifCSP5/1-NPN complex, and [1-NPN] is the free concentration of 1-NPN.

For assay [2], the target named is R24A mutant of AgifCSP5 (Aphidius gifuensis, UniProt A0A3Q9ELG9, R44A). As to the kind of experiment: Fluorescence competitive binding assay, R24A mutant.
Text: as §1
(§2) The mutagenesis primers for the targeted key amino acid residues were designed online (https://crm.vazyme.com/cetool/singlepoint.html (accessed on 24 December 2023)) according to the protocols of the Mut Express II Fast Mutagenesis Kit V2 (Vazyme, China) (Appendix B). Mutations were obtained by using Phanta Max Superfidelity DNA Polymerase with recombinant Plasmid pET-30a/AgifCSP5 plasmid DNA as a template. The plasmids of the mutants were verified by DNA sequencing. The mutated proteins were then expressed and purified, as described above. After protein concentration determination, the binding affinities of the mutants with ligands that previously bound well to the AgifCSP5 protein were verified using fluorescence competitive binding assays.

The target of assay [3] is Y75A mutant of AgifCSP5 (Aphidius gifuensis, UniProt A0A3Q9ELG9, Y95A). As to the kind of experiment: Fluorescence competitive binding assay, Y75A mutant.
Text: as §1, §2

The subject of assay [4] is A. gifuensis adults. The assay can be described thus: Y-tube olfactometer assay. The format is in vivo, Aphidius gifuensis. As to the method: The behavioral responses of A. gifuensis to volatiles were tested using a Y-tube olfactometer (3.5 cm in diameter, arms 20 cm in length, and a stem 20 cm in length). The assay method was described by Guo et al., and minor improvements were made. The incoming air at a constant flow (300 mL/min) was first filtered using allochroic silica gel and activated carbon and then humidified with ultrapure water. The test compounds were serially diluted with paraffin oil to concentrations of 0.01, 0.1, 1, 10, and 100mg/mL. A total of 10 μL of tested volatile oil preloaded onto 1 cm diameter filter paper was placed in the chamber of the chosen treatment arm of the Y-tube olfactometer, and the same filter paper in another chamber of the chosen control arm was loaded with 10 μL of liquid paraffin. The choice of each adult introduced into the Y-tube stem within 5 min was recorded. The experiments were performed in a dark room at room temperature (25 ± 1 °C), and a light-emitting diode installed at 30 cm was used as the light source. In total, no fewer than 60 adults (at least 30 from each sex) were used in each treatment. After 5 insects were tested, we switched the positions of the volatile arm and the control arm, and after a total of 10 insects were tested, the Y-tube olfactometer was washed with 75% ethanol and air-dried.

Where [5] appears, read: wild-type AgifCSP5, 1-NPN displacement, pH 7.4, read-out: IC50.
Setting [6] is: wild-type AgifCSP5, 1-NPN displacement, pH 7.4, read-out: Ki.

Chain of AgifCSP5 (A0A3Q9ELG9 entry or part of it): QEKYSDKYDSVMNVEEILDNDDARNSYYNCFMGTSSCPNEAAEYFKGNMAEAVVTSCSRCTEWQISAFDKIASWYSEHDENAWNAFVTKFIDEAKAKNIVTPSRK
Chain of R24A mutant of AgifCSP5 (A0A3Q9ELG9 entry or part of it R44A): as the sequence (A0A3Q9ELG9 entry or part of it) above, with R24A counted along it
Chain of Y75A mutant of AgifCSP5 (A0A3Q9ELG9 entry or part of it Y95A): as the sequence (A0A3Q9ELG9 entry or part of it) above, with Y75A counted along it

Take `CC/C=C\CC=O` [cis-3-Hexenal]: in assay [1], the IC50 (commonly the point on the concentration scale where inhibition reaches its midpoint) worked out at 29.8 ± 1.55 µM and affinity was put at a Ki of 22 ± 1.15 µM.
The corresponding values for `CCCCCCCCCCCCCCCCCCCCC` [Heneicosane] are 22.5 ± 2.42 µM and 16.7 ± 1.79 µM.
Taken in the same sequence, the figures for `COc1cc(C(C)=O)cc(OC)c1O` [Acetosyringone] were 36.9 ± 6.77 µM and 27.3 ± 5.01 µM.
As for `CCCC/C=C\CCO` [cis-3-Octen-1-ol], the figures for the IC50 in assay [1], in assay [2] and in assay [3] were 17 ± 1.08 µM, 18.9 ± 9.83 µM and 22.9 ± 6.68 µM, respectively. Besides, the inhibition constant Ki (as a rule, a measure of affinity in units of concentration, obtained from inhibition or displacement) is 12.6 ± 0.8 µM in assay [1], 17.4 ± 9.03 µM in assay [2] and 16.3 ± 4.75 µM in assay [3]. Also, the results for the “Behavioral response in words” value in assay [4] (10 mg/mL), in assay [4] (100 mg/mL) and in assay [4] (low concentrations) were “significantly repelled only males”, “significantly repelled; also recorded: repellent effects” and “did not show any repelling or attracting activity”, respectively.
Regarding `CCCCCCCCCCCCCCCCCO` [1-Heptadecanol], in assay [1], the IC50 worked out at 21.4 ± 1.07 µM and the affinity, expressed as Ki, was 15.8 ± 0.79 µM.
Consider `CCC/C=C/C=O` [trans-2-Hexen-1-al], for which the IC50 in assay [1] was found to be 18.1 ± 1.18 µM; in assay [2], 15 ± 8.09 µM; in assay [3], 14.6 ± 5.42 µM. The figures for the Ki in assay [1], in assay [2] and in assay [3] were 13.4 ± 0.87 µM, 13.8 ± 7.43 µM and 10.4 ± 3.85 µM, respectively. Further, the “Behavioral response in words” value is reported as “obviously repelled” in assay [4] (10 mg/mL); “significantly repelled; also recorded: repellent effects” in assay [4] (100 mg/mL); “strongly repelled” in assay [4] (100 mg/mL, listed as trans-2-hexenal); “did not show any repelling or attracting activity” in assay [4] (low concentrations).
On to `CC(=O)CCC=C(C)C` [6-Methyl-5-hepten-2-one], for which, in assay [1], the IC50 came out at 24.5 ± 1.43 µM and the Ki was 18.2 ± 1.06 µM.
Taken in the same sequence, the figures for `COC(=O)c1ccccc1O` [Methyl salicylate] were 20.6 ± 3.58 µM and 15.3 ± 2.65 µM.
Turning to `CC/C=C\CCO` [Leaf alcohol], the IC50 in assay [1] (setting [5]) stood at 27.9 ± 0.8 µM. The Ki in assay [1] (setting [6]) worked out at 20.6 ± 0.59 µM.
Consider `CC1=CC[C@@H]2C[C@H]1C2(C)C` [(1R)-(+)-α-Pinene], for which, in assay [1], the IC50 was 22.5 ± 2.42 µM and affinity was put at a Ki of 16.7 ± 1.79 µM.
The corresponding values for `OCc1ccccc1` [Benzyl alcohol] are 22.4 ± 4.58 µM and 16.6 ± 3.39 µM.
The corresponding values for `CC/C=C\CCO` [cis-3-Hexen-1-ol] are 23.4 ± 5.54 µM and 17.3 ± 4.1 µM.
With `CC1=COC(=O)C2C(C)CCC12` (stereo not shown) [Nepetalactone], the “Binding affinity in words” value in assay [1] is given as “weakly binds”; in assay [1] (listed as nephelactone), “weak binding affinities”. The IC50 in assay [1] (setting [5]) was 33.8 ± 6.81 µM. Also, in assay [1] (setting [6]), the inhibitory constant (Ki) came to 25 µM.
In assay [1], `CCC/C=C\CO` [cis-2-Hexen-1-ol] yielded an IC50 of 34.5 ± 2.09 µM and a Ki of 25.6 ± 1.55 µM.
The corresponding values for `CCCCCCCCCCCCCCCCCCC` [Nonadecane] are 38.9 ± 7.44 µM and 28.8 ± 5.51 µM.
In the case of `C=CC(=C)CCC=C(C)C` [Myrcene], in assay [1], the IC50 was 22.5 ± 2.51 µM and the Ki came out at 16.7 ± 1.86 µM.
Take `O=Cc1ccccc1` [Benzaldehyde]: the IC50 in assay [1] is 18.2 ± 0.88 µM; in assay [2] it was 17.3 ± 3.62 µM; in assay [3] it was greater than 40 µM. In addition, the Ki is 13.5 ± 0.65 µM in assay [1] and 15.8 ± 3.33 µM in assay [2]. Also, the “Behavioral response in words” value is recorded as “significantly repelled; also recorded: repellent effects; also recorded: strongly repelled” in assay [4] (100 mg/mL) and “did not show any repelling or attracting activity” in assay [4] (low concentrations).
Turning to `c1ccc(Nc2cccc3ccccc23)cc1` [1-NPN, N-phenyl-1-naphthylamine, reference compound], the results for the Kd in assay [1], in assay [2] and in assay [3] were 3.64 µM, 14.4 µM and 3.13 µM, respectively.
As to `C=C1CCC2(C(C)C)CC12` (stereo not shown) [Sabinene], the values for the IC50 in assay [1], in assay [2] and in assay [3] were 16.4 ± 0.94 µM, 22.4 ± 14.6 µM and 26.2 ± 11.6 µM, respectively. The Ki in assay [1] amounted to 12.1 ± 0.69 µM; in assay [2], 20.6 ± 13.4 µM; in assay [3], 18.6 ± 8.23 µM. Besides, the results for the “Behavioral response in words” value in assay [4] (10 mg/mL), in assay [4] (100 mg/mL) and in assay [4] (low concentrations) were “significantly repelled only males”, “significantly repelled; also recorded: repellent effects” and “did not show any repelling or attracting activity”, respectively.
Take `C=CC(=C)CC/C=C(\C)CCC=C(C)C` [(E)-β-Farnesene]: the results for the “Binding affinity in words” value in assay [1] and in assay [1] (listed as EBF) were “weakly binds” and “weak binding affinities”, respectively. Further, the IC50 in assay [1] (setting [5]) is 25.9 ± 1.16 µM. In assay [1] (setting [6]), the Ki came out at 19.2 ± 0.86 µM.
In assay [1], `CC/C=C\CCOC(C)=O` [cis-3-Hexenyl acetate] yielded an IC50 of 24.5 ± 0.49 µM and a Ki of 18.2 ± 0.36 µM.
In the case of `CC1=CCC(C(C)(C)O)CC1` (stereo not drawn) [(+)-α-Terpineol], in assay [1] (setting [5]), the 50% inhibitory concentration (IC50) is 29.4 ± 1.6 µM. The Ki in assay [1] (setting [6]) worked out at 21.8 ± 1.19 µM.
In assay [1], `C=C(C)[C@@H]1CC=C(C)C(=O)C1` [(R)-(−)-Carvone] returned an IC50 of 23 ± 0.91 µM and a Ki of 17 ± 0.67 µM.
Consider `C=C(C)[C@@H]1CC=C(C)CC1` [(S)-(−)-Limonene], for which, in assay [1] (setting [5]), the IC50 turned out to be 28.4 ± 2.84 µM. For the same molecule, in assay [1] (setting [6]), the Ki was determined as 21 ± 2.1 µM.
In assay [1], `CCCCCCCCCCCCCC=O` [Tetradecanal] showed an IC50 of 20.6 ± 2.11 µM and an inhibition constant (Ki) of 15.3 ± 1.57 µM. In assay [2] (R24A mutant), the “Binding affinity of R24A compared with wild type, in words” value is listed as “increased the binding affinity”.
As for `CCCCCC/C=C/C=O` [trans-2-Nonenal], the IC50 in assay [1] is 16.6 ± 1.78 µM; in assay [2], 25.9 ± 16.4 µM; in assay [3], greater than 40 µM. The Ki was found to be 12.3 ± 1.31 µM in assay [1] and 23.7 ± 15 µM in assay [2]. For the same molecule, the “Behavioral response in words” value was “significantly attracted only female adults; also recorded: attractive” in assay [4] (10 mg/mL) and “significantly repelled” in assay [4] (100 mg/mL).
As for `C=C/C(C)=C\CC=C(C)C` [(Z)-β-ocimene], the IC50 stood at 18 ± 2.89 µM in assay [1] (setting [5]); 18.2 ± 1.97 µM in assay [2] (R24A mutant, read-out: IC50); 30.8 ± 7.87 µM in assay [3] (Y75A mutant, read-out: IC50). The Ki in assay [1] (setting [6]) was 13.3 ± 2.14 µM; in assay [2] (R24A mutant, read-out: Ki), 16.7 ± 2.73 µM; in assay [3] (Y75A mutant, read-out: Ki) it was 21.9 ± 5.59 µM. Besides, the “Behavioral response in words” value in assay [4] (100 mg/mL) was “significantly repelled; also recorded: repellent effects”; in assay [4] (low concentrations), “did not show any repelling or attracting activity”.
In assay [1], `C=CC(C)(O)CCC=C(C)C` (stereo not shown) [Linalool] displayed an IC50 of 25.5 ± 3.46 µM and a Ki of 18.9 ± 2.56 µM.
In assay [1], `CCCCCCCCCCCCC` [Tridecane] registered a half-inhibitory concentration (IC50) greater than 40 µM.
`CC/C=C\CC1C(=O)CCC1CC(=O)OC` (stereo not shown) [Methyl jasmonate]: the IC50 in assay [1] was found to be 20.1 ± 1.92 µM; in assay [2], 8.89 ± 0.95 µM; in assay [3], 29.7 ± 1.06 µM. Besides, the values for the inhibition constant Ki in assay [1], in assay [2] and in assay [3] were 14.9 ± 1.42 µM, 8.16 ± 0.87 µM and 21.1 ± 0.75 µM, respectively. Moreover, the “Binding affinity of R24A compared with wild type, in words” value in assay [2] (R24A mutant) is recorded as “increased the binding affinity; also recorded: increased affinities”.
On to `C=C(C)[C@H]1CC=C(C)CC1` [(R)-(+)-Limonene], for which the IC50 in assay [1] (setting [5]) turned out to be 25.2 ± 4.06 µM. Also, in assay [1] (setting [6]), the Ki worked out at 18.7 ± 3.01 µM.
In assay [1], `CC(=O)OC/C=C(\C)CCC=C(C)C` [Geranyl acetate] gave an IC50 of 27.3 ± 4.87 µM and a Ki of 20.2 ± 3.61 µM.
